# Test results as given in patent US8344135B2, “Heterocyclic compound and use thereof” (Takeda Pharmaceutical Company Limited, priority 2007, dated 2013).
# Target: T1, BRAF (V600E) (Homo sapiens, UniProt P15056, V600E)
# T1 construct: area encoding the BRAF kinase domain region, so that the protein contains an N-terminal Flag; made in house; host or cells: SF-21 insect cells infected with recombinant baculovirus BAC-V600E
# Test: Determination of BRAF (V600E) kinase inhibitory activity
# Assay type: biochemical
# Details: test compound 1.0 μM; substrate GST-MEK1 (K96R); [γ-32P]ATP; read-out: Inhibitory rate (%) at 1.0 μM
# Experimental: Determination of BRAF (V600E) Kinase Inhibitory Activity
# A test compound (2.5 μL) dissolved in dimethyl sulfoxide (DMSO) was added to 37.5 μL of a reaction solution (25 mM HEPES (pH 7.5), 10 mM magnesium acetate, 1 mM dithiothreitol) containing BRAF (V600E) enzyme (30 ng) and recombinant type protein GST-MEK1 (K96R) 250 ng, and the mixture was incubated at room temperature for 10 min. ATP solution (10 μL, 2.5 μM ATP, 0.1 μCi [γ-^32P]ATP) was added to the obtained mixture, and the mixture was reacted at room temperature for 20 min. The reaction was quenched by adding 50 μL of ice-cooled 20% trichloroacetic acid (Wako Pure Chemical Industries, Ltd.). The reaction solution was allowed to stand at 4° C. for 30 min, and the acid-precipitable fraction was transferred to GF/C filter plate (Millipore Corporation) using cell harvester (PerkinElmer). The plate was dried at 45° C. for 60 min, and 40 μL of MicroScinti 0 (PerkinElmer) was added thereto. The radioactivity was measured using TopCount (PerkinElmer). The kinase inhibitory rate (%) of the test compound was calculated by the following formula: Inhibitory rate (%)=(1−(count of test compound−blank)÷(control−blank))×100
# The count of the solution reacted without addition of the compound was used as a “control”, and the count of the solution without the compound and enzyme was used as a “blank”.
# T1 sequence (P15056 457-717 V600E limits assumed): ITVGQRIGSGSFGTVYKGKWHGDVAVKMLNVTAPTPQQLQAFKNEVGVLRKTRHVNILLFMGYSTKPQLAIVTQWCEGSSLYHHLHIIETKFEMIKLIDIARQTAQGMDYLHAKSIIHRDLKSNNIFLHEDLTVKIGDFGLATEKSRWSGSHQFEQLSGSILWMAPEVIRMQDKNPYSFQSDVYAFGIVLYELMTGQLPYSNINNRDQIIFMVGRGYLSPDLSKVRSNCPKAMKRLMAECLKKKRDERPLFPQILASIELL
row,inhibition at 1 µM [%],Compound
1,100,"CN1CCN(CC(=O)Nc2nc3ccc(Oc4cccc(NC(=O)c5cccc(C(C)(C)C#N)c5)c4)nc3s2)CC1 [Example C25, 3-(1-cyano-1-methylethyl)-N-{3-[(2-{[(4-methylpiperazin-1-yl)acetyl]amino}[1,3]thiazolo[5,4-b]pyridin-5-yl)oxy]phenyl}benzamide]"
2,100,"Cc1ccc(Oc2ccc3nc(NC(=O)CO)sc3n2)cc1NC(=O)c1cccc(C(C)(C)C#N)c1 [Example C36, 3-(1-cyano-1-methylethyl)-N-(5-{[2-(glycoloylamino)[1,3]thiazolo[5,4-b]pyridin-5-yl]oxy}-2-methylphenyl)benzamide]"
3,100,"Cc1ccc(Oc2ccc3nc(NC(=O)c4cocn4)sc3n2)cc1NC(=O)c1cccc(C2(C#N)CC2)c1 [Example C30, N-[5-(3-{[3-(1-cyanocyclopropyl)benzoyl]amino}-4-methylphenoxy)[1,3]thiazolo[5,4-b]pyridin-2-yl]-1,3-oxazole-4-carboxamide]"
4,98,"CC(=O)Nc1nc2cnc(N(C)c3cccc(NC(=O)c4cccc(C(F)(F)F)c4)c3)nc2s1 [Example D1, N-{3-[[2-(acetylamino)[1,3]thiazolo[5,4-d]pyrimidin-5-yl](methyl)amino]phenyl}-3-(trifluoromethyl)benzamide]"
5,100,"O=C(Nc1cccc(Oc2ccc3nc(NC(=O)C4CC4)sc3n2)c1)c1cccc(C(F)(F)F)c1 [Example C20, N-[3-({2-[(cyclopropylcarbonyl)amino][1,3]thiazolo[5,4-b]pyridin-5-yl}oxy)phenyl]-3-(trifluoromethyl)benzamide]"

# System: MEK1/2 phosphorylation (Ser217/221) in HT-29 cells
# Test: Colon cancer cell HT-29 intracellular MEK phosphorylation inhibitory action in vitro
# Assay type: cell-based
# Details: Homo sapiens, 2 hr treatment, Western blot of phosphorylated MEK1/2
# Experimental: Colon Cancer Cell HT-29 Intracellular MEK Phosphorylation Inhibitory Action in vitro
# A cell suspension (500 μL) of human colon cancer cell HT-29 was plated in a 48-well plate (100,000 cells/well), and the cells were cultured overnight at 37° C. in the presence of 5% CO2, treated with a test compound (250 μL/well) diluted in 3-fold dilution series and cultured for two more hours. After 2 hr, the culture medium containing the test compound was removed, and the cells were lysed with SDS sample buffer (100 μL/well) and heated at 95° C. for 5 min. Thereafter, the cells were applied to SDS-PAGE, and the protein was transferred onto Sequi-Blot™ PVDF Membrane (Bio-Rad) by the Western blot method. The cells were blocked with a block-Ace solution (Snow Brand Milk Products Co., Ltd) dissolved in phosphate buffer to 5% W/V, and reacted overnight with anti-phosphorylated MEK1/2 (Ser217/221) (Cell signaling #9121) diluted 1000-fold with phosphate buffer containing 0.4% block-Ace. The membrane was washed with phosphate buffer containing 0.1% Tween 20 (Wako Pure Chemical Industries, Ltd.), and reacted at room temperature for 1 hr with HRP labeled rabbit IgG polyclonal antibody (Cell signaling #7074) diluted 1000-fold with phosphate buffer containing 0.4% block-Ace. The membrane was washed in the same manner as above, chemical luminescence of a phosphorylated MEK1/2 protein labeled with the antibody, which was caused by ECL-plus Detection Reagent (Amersham bioscience), was detected by Luminescent Image Analyzer LAS-1000 (FUJIFILM Corporation).
row,Compound,IC50 [nM]
1,"CN(c1cccc(NC(=O)c2cccc(C(F)(F)F)c2)c1)c1ncc2nc(NC(=O)C3CC3)sc2n1 [Example D2, N-{3-[{2-[(cyclopropylcarbonyl)amino][1,3]thiazolo[5,4-d]pyrimidin-5-yl}(methyl)amino]phenyl}-3-(trifluoromethyl)benzamide]",< 500
2,"N#CC1(c2cccc(C(=O)Nc3cccc(Oc4ccc5nc(NC(=O)C6CC6)sc5n4)c3)c2)CC1 [Example C26, 3-(1-cyanocyclopropyl)-N-[3-({2-[(cyclopropylcarbonyl)amino][1,3]thiazolo[5,4-b]pyridin-5-yl}oxy)phenyl]benzamide]",< 500
3,"Cc1ccc(NC(=O)c2cccc(C3(C#N)CC3)c2)cc1Oc1ccc2nc(NC(=O)C3CC3)sc2n1 [Example C16, 3-(1-cyanocyclopropyl)-N-[3-({2-[(cyclopropylcarbonyl)amino][1,3]thiazolo[5,4-b]pyridin-5-yl}oxy)-4-methylphenyl]benzamide]",< 500

# The remaining lines, values ahead:
row,IC50 [nM],Compound
1,< 500,"Cc1ccc(NC(=O)c2cccc(C(F)(F)F)c2)cc1Oc1ccc2nc(NC(=O)CN3CCN(C)CC3)sc2n1 [Example C11, N-{4-methyl-3-[(2-{[(4-methylpiperazin-1-yl)acetyl]amino}[1,3]thiazolo[5,4-b]pyridin-5-yl)oxy]phenyl}-3-(trifluoromethyl)benzamide]"
2,< 500,"COc1ccc(NC(=O)c2cccc(C3(C#N)CC3)c2)cc1Oc1ccc2nc(NC(=O)CN3CCN(C)CC3)sc2n1 [Example C2, 3-(1-cyanocyclopropyl)-N-{4-methoxy-3-[(2-{[(4-methylpiperazin-1-yl)acetyl]amino}[1,3]thiazolo[5,4-b]pyridin-5-yl)oxy]phenyl}benzamide]"
3,< 500,"Cc1ccc(NC(=O)c2cccc(C(C)(C)C#N)c2)cc1Oc1ccc2nc(NC(=O)CO)sc2n1 [Example C13, 3-(1-cyano-1-methylethyl)-N-(3-{[2-(glycoloylamino)[1,3]thiazolo[5,4-b]pyridin-5-yl]oxy}-4-methylphenyl)benzamide]"
4,< 500,"Cc1ccc(Oc2ccc3nc(NC(=O)CN4CCN(C)CC4)sc3n2)cc1NC(=O)c1cccc(C(C)(C)C#N)c1 [Example C35, 3-(1-cyano-1-methylethyl)-N-{2-methyl-5-[(2-{[(4-methylpiperazin-1-yl)acetyl]amino}[1,3]thiazolo[5,4-b]pyridin-5-yl)oxy]phenyl}benzamide]"
5,< 500,"CC(=O)Nc1nc2ccc(Oc3ccc(F)c(NC(=O)c4cccc(C5(C#N)CC5)c4Cl)c3)nc2s1 [Example C65, N-(5-{[2-(acetylamino)[1,3]thiazolo[5,4-b]pyridin-5-yl]oxy}-2-fluorophenyl)-2-chloro-3-(1-cyanocyclopropyl)benzamide]"
6,< 500,"Cc1ccc(NC(=O)c2cccc(C(C)(C)C#N)c2)cc1Oc1ccc2nc(NC(=O)/C=C/c3ccc(Cl)cc3)sc2n1 [Example C99, N-{3-[(2-{[(2E)-3-(4-chlorophenyl)prop-2-enoyl]amino}[1,3]thiazolo[5,4-b]pyridin-5-yl)oxy]-4-methylphenyl}-3-(1-cyano-1-methylethyl)benzamide]"
7,< 500,"Cc1ccc(NC(=O)c2cccc(C(F)(F)F)c2)cc1Oc1ccc2nc(NC(=O)CO)sc2n1 [Example C9, N-(3-{[2-(glycoloylamino)[1,3]thiazolo[5,4-b]pyridin-5-yl]oxy}-4-methylphenyl)-3-(trifluoromethyl)benzamide]"
8,< 500,CN1CCN(CC(=O)Nc2nc3ccc(Oc4cc(NC(=O)c5cccc(C(C)(C)C#N)c5)ccc4Cl)nc3s2)CC1 [Example C51]
9,< 500,"CN(c1cccc(NC(=O)c2cccc(C(F)(F)F)c2)c1)c1ccc2nc(NC(=O)C3CC3)sc2n1 [Example C40, N-{3-[{2-[(cyclopropylcarbonyl)amino][1,3]thiazolo[5,4-b]pyridin-5-yl}(methyl)amino]phenyl}-3-(trifluoromethyl)benzamide]"
